Key:
CDK9 kinase = molecular target: T1, CDK9 kinase (Homo sapiens, UniProt P50750); assay: Inhibitory effect on the kinase activity of CDK9 in vitro; type: biochemical; details: CDK9 kinase (Millipore), CTD3 substrate polypeptide, Caliper
T1 construct: purchased Millipore 14-685M
Procedure: The detection of the inhibitory effect of the compounds of the present disclosure on the kinase activity of CDK9 in vitro was determined by the following method:
Compound preparation: The compound was accurately weighed and dissolved in DMSO (Sigma, D2650) to a concentration of 100 um for later use. The compound was diluted to 5-fold of a desired highest concentration, and diluted 4-fold into 6 concentration gradients, allowing the final concentration of the compound in the reaction system to be 100, 25, 6.25, 1.56, 0.39, 0.098 nM. 5 ul was taken to a 384-well plate (Corning, 4512).
Detection: Data was collected by Caliper.
Calculation: The IC50 value was calculated by Graphpad prism 5.0 software according to the concentration of the compound and the corresponding signal value.

Mv4-11 cells = assay: Inhibition of the proliferation of Mv4-11 cells (CCK8); type: cell-based; details: Mv4-11 cell proliferation, CCK8 OD450
Procedure: The inhibition effect of the compounds of the present disclosure on the proliferation of Mv4-11 cells (ATCC:CRL-9591TM) in vitro was determined by the following method:
Cell inoculation: Mv4-11 cells with good growing state in logarithmic growth phase were inoculated into a 96-well plate at 20000 cells per well and 50 uL, and cultured at 37° C. and under 5% CO2 condition for 2-4 h. Administration: The compound was diluted with 1640 medium containing 10% FBS and 1% PS: 0.4 uL of the compound with an initial concentration of 1 mM was placed in a dilution plate, each added with 199.6 uL of the above culture medium, and gradiently diluted 4-fold, so that the final concentration in the added cell was 1000, 250, 62.5, 15.625, 3.91, 0.98, 0.24, 0.06 nM. 50 μL of the medium containing the compound was sequentially added, and it was placed in a 37° C., 5% CO2 cell incubator for 48 hours.
Detection: 10 uL CCK8 (Dojindo, CK 04) solution was added to each well, incubated in 37° C. 5% CO2 cell incubator for 2 hours, and then the OD450 value was read by Synegry H1 (BioTek) multimode microplate reader.
Calculation: The IC50 value was calculated using Graphpad prism 5.0 software according to the concentration of the compound and the corresponding signal value.

[1] = test system: phosphorylation of RNA pol II Ser2 in Mv4-11 cells; assay: Inhibition of phosphorylation of RNA pol II Ser2 in Mv4-11 cells (SDS-PAGE, FIG. 1); type: cell-based; details: 6 hours, different concentrations
Procedure: The inhibition effect of the compounds of the present disclosure on the in vitro Mv4-11 cell RNA pol II Ser 2 was determined by the following method:
Cell inoculation: Mv4-11 cells with good growing state in logarithmic growth phase were inoculated into a six-well plate with 2*10^5 cells/well, and cultured overnight at 37° C. and under 5% CO2 condition.
Administration: The compound was diluted with 2 mL of 1640 medium containing 10% FBS and 1% PS. 2 ul of the medium containing the compound was added to the overnight cultured cells, and it was placed in a 37° C., 5% CO2 cell incubator for 6 hours.
Protein extraction and quantification: Cell suspension was collected and centrifuged at 1000 g for 5 min, the cell culturing medium was discarded, and PBS was added for resuspension and centrifugation; it was repeated three times, the residual liquid was sucked dry, 80 uL cell lysate was added per well, it was placed to ice, shaked for 10 min on a shaker, centrifuged at 12000 g for 5 min, and the supernatant, ie, the total protein solution, was collected; the protein concentration was tested by BCA.

T1 sequence (P50750 whole entry): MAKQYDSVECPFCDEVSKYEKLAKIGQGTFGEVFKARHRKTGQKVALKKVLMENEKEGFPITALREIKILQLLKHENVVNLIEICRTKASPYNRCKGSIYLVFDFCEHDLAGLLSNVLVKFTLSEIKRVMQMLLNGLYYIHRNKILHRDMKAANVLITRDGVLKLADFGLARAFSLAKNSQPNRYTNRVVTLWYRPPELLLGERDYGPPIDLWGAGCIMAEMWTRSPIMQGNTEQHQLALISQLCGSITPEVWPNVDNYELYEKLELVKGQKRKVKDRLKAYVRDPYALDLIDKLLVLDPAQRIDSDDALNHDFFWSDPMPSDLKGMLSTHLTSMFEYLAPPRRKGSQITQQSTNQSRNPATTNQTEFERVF
T1 sequence (O60563 whole entry partner): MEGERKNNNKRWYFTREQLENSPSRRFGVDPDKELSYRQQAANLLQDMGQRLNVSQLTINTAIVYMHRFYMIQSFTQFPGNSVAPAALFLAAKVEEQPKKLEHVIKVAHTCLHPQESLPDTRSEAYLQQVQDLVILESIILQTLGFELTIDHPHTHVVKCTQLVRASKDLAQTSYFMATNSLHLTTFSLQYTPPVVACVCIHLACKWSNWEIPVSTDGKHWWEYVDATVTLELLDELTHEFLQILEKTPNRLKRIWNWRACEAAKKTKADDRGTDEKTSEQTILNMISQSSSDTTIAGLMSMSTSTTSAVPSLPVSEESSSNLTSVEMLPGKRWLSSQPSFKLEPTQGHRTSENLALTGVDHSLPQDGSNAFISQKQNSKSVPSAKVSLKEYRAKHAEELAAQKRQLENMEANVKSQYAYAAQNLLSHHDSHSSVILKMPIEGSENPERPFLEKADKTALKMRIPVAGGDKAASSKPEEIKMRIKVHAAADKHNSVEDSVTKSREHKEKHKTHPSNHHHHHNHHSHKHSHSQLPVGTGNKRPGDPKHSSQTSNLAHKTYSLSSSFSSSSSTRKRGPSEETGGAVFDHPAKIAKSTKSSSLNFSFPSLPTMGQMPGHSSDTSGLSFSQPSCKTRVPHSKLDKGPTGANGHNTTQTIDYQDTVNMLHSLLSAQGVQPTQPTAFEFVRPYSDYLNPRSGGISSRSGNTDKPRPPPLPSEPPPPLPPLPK

Row | IC50 (CDK9 kinase) [nM] | IC50 (Mv4-11 cells; Homo sapiens, MV4-11, 48 h) [nM] | IC50 (Mv4-11 cells; 48 hours) [nM] | Compound | inhibitory effect on the phosphorylation of RNA pol II Ser 2 in Mv4-11 cells [1]
1 | 2.9 | 26 | – | CC(=O)N[C@@H]1CCC[C@H](C(=O)Nc2cc(-c3cc(C(N)=O)n4c3CC(C)(C)C4)ccn2)C1 [Compound 12] | significant inhibitory effect
2 | 4.9 | 36.1 | – | CC(=O)N[C@@H]1CCC[C@H](C(=O)Nc2cc(-c3cc(C(N)=O)c4n3CC(C)(C)C4)c(Cl)cn2)C1 [Compound 17, 5-(2-((1S,3R)-3-acetylaminocyclohexane-1-carboxamido)-5-chloropyridin-4-yl)-2,2-dimethyl-2,3-dihydro-1H-pyrrolizine-7-carboxamide] | –
3 | 10.1 | 7.9 | – | CC1(C)Cc2c(-c3cc(NC(=O)[C@@H]4C[C@H]5C[C@H](C(N)=O)C[C@H]5C4)ncc3Cl)cc(C(N)=O)n2C1 [Compound 15-1, (2s,3aR,5r,6aS)-N-(4-(5-carbamoyl-2,2-dimethyl-2,3-dihydro-1H-pyrrolizin-7-yl)-5-chloropyridin-2-yl)octahydropentalene-2,5-dicarboxamide] | –
4 | 3.2 | 17.5 | – | CC(=O)N1C[C@H]2CC(C(=O)Nc3cc(-c4cc(C#N)n5c4CC(C)(C)C5)c(Cl)cn3)C[C@H]2C1 (single isomer, unassigned) [Compound 7-1] | significant inhibitory effect
5 | 3.2 | 1.4 | – | CC(=O)N1CC[C@@]2(CC[C@H](C(=O)Nc3cc(-c4cnn5c4CC(C)(C)C5)c(Cl)cn3)C2)C1 (single isomer, unassigned) [Compound 18-1] | –
6 | 2.2 | 3.5 | – | CC(=O)N[C@@H]1CCC[C@H](C(=O)Nc2cc(-c3cc(C#N)c4n3CC(C)(C)C4)c(F)cn2)C1 [Compound 27, (1S,3R)-3-acetamido-N-(4-(7-cyano-2,2-dimethyl-2,3-dihydro-1H-pyrrolizin-5-yl)-5-fluoropyridin-2-yl)cyclohexane-1-carboxamide] | –
7 | 3.5 | – | 5.1 | CNC(=O)C1C[C@@H]2CC(C(=O)Nc3cc(-c4cc(C(N)=O)n5c4CC(C)(C)C5)c(Cl)cn3)C[C@@H]2C1 (single isomer, unassigned) [Compound 26-2] | –
8 | 3.1 | – | 0.4 | CC(=O)N1C[C@H]2CC(C(=O)Nc3cc(-c4cc(C(N)=O)n5c4CC(C)(C)C5)c(Cl)cn3)C[C@H]2C1 (single isomer, unassigned) [Compound 8-2] | –
9 | 3.2 | 2.8 | – | Cn1ccc([C@@H]2CCC[C@H](C(=O)Nc3cc(-c4cnn5c4CC(C)(C)C5)c(Cl)cn3)C2)n1 (single isomer, unassigned) [Compound 22-1-1] | significant inhibitory effect
10 | 3.8 | 5.9 | – | CC(=O)N[C@H]1C[C@@H]2C[C@@H](C(=O)Nc3cc(-c4cc(C(N)=O)n5c4CC(C)(C)C5)c(Cl)cn3)C[C@@H]2C1 (single isomer, unassigned) [Compound 24-1] | –
11 | 2.8 | 27.6 | – | CC(=O)N[C@@H]1CCC[C@H](C(=O)Nc2cc(-c3cc(C(N)=O)n4c3CC(C)(C)C4)c(Cl)cn2)C1 [Compound 2, 7-(2-((1S,3R)-3-acetylaminocyclohexane-1-carboxamido)-5-chloropyridin-4-yl)-2,2-dimethyl-2,3-dihydro-1H-pyrrolizine-5-carboxamide] | –
12 | 10.4 | 44.6 | – | CC(=O)N[C@@H]1C[C@@H]2C[C@H](C(=O)Nc3cc(-c4cc(C#N)n5c4CC(C)(C)C5)c(Cl)cn3)C[C@@H]2C1 (single isomer, unassigned) [Compound 14-2-2] | –
13 | 4.9 | 2.3 | – | CC(=O)N[C@H]1C[C@@H]2C[C@@H](C(=O)Nc3cc(-c4cc(C(N)=O)n5c4CC(C)(C)C5)c(F)cn3)C[C@@H]2C1 [Compound 34-1, 7-(2-((2r,3aR,5s,6aS)-5-acetylaminooctahydropentalene-2-carboxamido)-5-fluoropyridin-4-yl)-2,2-dimethyl-2,3-dihydro-1H-pyrrolizine-5-carboxamide] | –
14 | 2.9 | 4.1 | – | CNC(=O)C1C[C@@H]2CC(C(=O)Nc3cc(-c4cc(C(N)=O)n5c4CC(C)(C)C5)c(Cl)cn3)C[C@@H]2C1 (single isomer, unassigned) [Compound 26-1] | –
15 | 3.5 | – | 7.7 | CC(=O)N1C[C@H]2CC(C(=O)Nc3cc(-c4cc(C(N)=O)n5c4CC(C)(C)C5)c(Cl)cn3)C[C@H]2C1 (single isomer, unassigned) [Compound 8-1] | –
16 | 3.7 | 5.4 | – | C[C@@H](N)C(=O)N1C[C@H]2CC(C(=O)Nc3cc(-c4cnn5c4CC(C)(C)C5)c(Cl)cn3)C[C@H]2C1 (stereo partly drawn) [Compound 6, (3aR,6aS)-2-(D-alanyl)-N-(5-chloro-4-(5,5-dimethyl-5,6-dihydro-4H-pyrrolo[1,2-b]pyrazol-3-yl)pyridin-2-yl)octahydrocyclopenta[c]pyrrole-5-carboxamide] | –
